Assay results taken from US20190202799A1, “IMIDAZOLE DERIVATIVES AND THEIR USE IN THE TREATMENT OF AUTOIMMUNE OR INFLAMMATORY DISEASES OR CANCERS” (GLAXOSMITHKLINE INTELLECTUAL PROPERTY (No.2) LIMITED, priority 2016, published 2019).

Tested on: MCP-1 production
Assay: LPS induced MCP-1 production from human whole blood
Assay type: cell-based
Details: LPS 200 ng/mL, 18-24 hours, read-out: mean pIC50, LPS induced MCP-1 production (converted)
Procedure: Activation of monocytic cells by agonists of toll-like receptors such as bacterial lipopolysaccharide (LPS) results in production of key inflammatory mediators including MCP-1. Such pathways are widely considered to be central to the pathophysiology of a range of auto-immune and inflammatory disorders.
Blood is collected in a tube containing Sodium heparin (Leo Pharmaceuticals) (10 units of heparin/mL of blood). 96-well compound plates containing 0.5 μL test sample (compound) in 100% DMSO were prepared (two replicates on account of donor variability). 130 μL of whole blood was dispensed into each well of the 96-well compound plates and incubated for 30 min at 37° C., 5% CO2. 10 μL of lipopolysaccharide (from Salmonella typhosa; L6386) made up in PBS (200 ng/mL final assay concentration) was added to each well of the compound plates. The plates were then placed in the humidified primary cell incubator for 18-24 hours at 37° C., 5% CO2. 140 μL of PBS was added to all wells of the compound plates containing blood. The plates were then sealed and centrifuged for 10 mins at 2500 rpm (r.t). […] 150 μL of 2×MSD Read Buffer T (stock 4×MSD Read Buffer T was diluted 50:50 with de-ionised water) was then added to each well and the plates read on the MSD Sector Imager 6000. Concentration response curves for each compound were generated from the data and an IC50 value was calculated.

IC50: > 20 µM
SMILES: Cc1cc(-c2nc(C(=O)O)cn2Cc2ccccc2)cn(C)c1=O [Example 34, 1-benzyl-2-(1,5-dimethyl-6-oxo-1,6-dihydropyridin-3-yl)-1H-imidazole-4-carboxylic acid]
